Test results taken from ChEMBL document CHEMBL3046560, “Steroidal saponins from the leaves of Yucca de-smetiana and their in vitro antitumor activity: structure activity relationships through a molecular modeling approach” (Med Chem Res, 2013).
pIC50: −log10 of the molar value.

Experiments:
MCF7 [1] = test: Ratio of doxorubicin IC50 to compound IC50 for Homo sapiens (human) MCF7 cells; assay type: functional
HepG2 [2] = test: Antitumor activity against Homo sapiens (human) HepG2 cells assessed as cell growth inhibition after 48 hr by MTT assay; assay type: functional, cell-based; settings: for pIC50: Homo sapiens, HepG2, 48 h, read-out: IC50; for IC50: hepg2
A549 = test: Antitumor activity against Homo sapiens (human) A549 cells assessed as cell growth inhibition after 48 hr by MTT assay; assay type: functional, cell-based; settings: for pIC50: Homo sapiens, A549, 48 h, read-out: IC50; for IC50: a549
MCF7 [3] = test: Antitumor activity against Homo sapiens (human) MCF7 cells assessed as cell growth inhibition after 48 hr by MTT assay; assay type: functional, cell-based; settings: for pIC50: Homo sapiens, MCF7, 48 h, read-out: IC50; for IC50: mcf7
HCT-116 = test: Antitumor activity against Homo sapiens (human) HCT116 cells assessed as cell growth inhibition after 48 hr by MTT assay; assay type: functional, cell-based; settings: for pIC50: Homo sapiens, HCT-116, 48 h, read-out: IC50; for IC50: hct-116
HepG2 [4] = test: Ratio of doxorubicin IC50 to compound IC50 for Homo sapiens (human) HepG2 cells; assay type: functional

Row | Compound | Ratio IC50 (MCF7 [1]) | growth inhibition (GI) (HepG2 [2]) | pIC50 (HepG2 [2]) | growth inhibition (GI) (A549) | pIC50 (A549) | growth inhibition (GI) (MCF7 [3]) | pIC50 (MCF7 [3]) | growth inhibition (GI) (HCT-116) | pIC50 (HCT-116) | IC50 (HepG2 [2]) | IC50 (A549) | IC50 (MCF7 [3]) | IC50 (HCT-116) | Ratio IC50 (HepG2 [4])
1 | C[C@@H]1CC[C@@]2(OC1)O[C@H]1C[C@H]3[C@@H]4CC[C@@H]5C[C@@H](O[C@@H]6O[C@H](CO)[C@H](O[C@@H]7O[C@H](CO)[C@@H](O)[C@H](O[C@@H]8O[C@H](CO)[C@@H](O)[C@H](O)[C@H]8O)[C@H]7O[C@@H]7O[C@H](CO)[C@H](O)[C@H](O)[C@H]7O[C@@H]7OC[C@@H](O)[C@H](O)[C@H]7O)[C@H](O)[C@H]6O)CC[C@]5(C)[C@H]4CC[C@]3(C)[C@H]1[C@@H]2C [Desmettianoside C] | 2 | Dose-dependent effect | 5.96 | Dose-dependent effect | 4.99 | Dose-dependent effect | 5.59 | Dose-dependent effect | 5.62 |  |  |  |  | 
2 | COc1cccc2c1C(=O)c1c(O)c3c(c(O)c1C2=O)C[C@@](O)(C(=O)CO)C[C@@H]3O[C@H]1C[C@H](N)[C@H](O)[C@H](C)O1 [DOXORUBICIN] |  |  | 5.13 |  | 6.08 |  |  |  | 5.16 |  |  |  |  | 
3 | C[C@@H](CC[C@@]1(O)O[C@H]2C[C@H]3[C@@H]4CC[C@@H]5C[C@@H](O[C@@H]6O[C@H](CO)[C@@H](O)[C@H](O)[C@H]6O[C@@H]6O[C@H](CO)[C@H](O)[C@H](O)[C@H]6O)CC[C@]5(C)[C@H]4CC[C@]3(C)[C@H]2[C@@H]1C)CO[C@@H]1O[C@H](CO)[C@@H](O)[C@H](O)[C@H]1O |  |  |  |  |  |  |  |  |  | Not Active | Not Active | Not Active | Not Active | 
4 | CO[C@]1(CC[C@H](C)CO[C@@H]2O[C@H](CO)[C@@H](O)[C@H](O)[C@H]2O)O[C@H]2C[C@H]3[C@@H]4CC[C@@H]5C[C@@H](O[C@@H]6O[C@H](CO)[C@@H](O)[C@H](O)[C@H]6O[C@@H]6O[C@H](CO)[C@H](O)[C@H](O)[C@H]6O)CC[C@]5(C)[C@H]4CC[C@]3(C)[C@H]2[C@@H]1C |  |  |  |  |  |  |  |  |  | Not Active | Not Active | Not Active | Not Active | 
5 | C[C@@H]1CC[C@@]2(OC1)O[C@H]1C[C@H]3[C@@H]4CC[C@@H]5C[C@@H](O[C@@H]6O[C@H](CO)[C@@H](O)[C@H](O)[C@H]6O[C@@H]6O[C@H](CO)[C@H](O)[C@H](O)[C@H]6O)CC[C@]5(C)[C@H]4CC[C@]3(C)[C@H]1[C@@H]2C |  | Dose-dependent effect | 5.46 | Dose-dependent effect | 4.78 | Dose-dependent effect | 5.40 | Dose-dependent effect | 5.36 |  |  |  |  | 2
